From article PMC12673082 (Nature Communications, 2025)
Where a chain is given by its changes, count along the chain named.

How the values were obtained:
hP2X7 F88A = hP2X7 F88A (Homo sapiens, UniProt Q99572, F88A); assay: Whole-cell patch clamp, hP2X7 mutant; format: cell-based; conditions: h7F88A, 30 μM (Fig. S3b)
hP2X7 V312A = hP2X7 V312A (Homo sapiens, UniProt Q99572, V312A); assay: Whole-cell patch clamp, hP2X7 mutant; format: cell-based
hP2X7 Y295F = hP2X7 Y295F (Homo sapiens, UniProt Q99572, Y295F); assay: Whole-cell patch clamp, hP2X7 mutant; format: cell-based
mP2X7 = molecular target: T1, mP2X7 (Mus musculus, UniProt Q9Z1M0); assay: Whole-cell patch clamp, ATP-evoked current, transfected HEK293; format: cell-based
T1 sequence (Q9Z1M0 1-595): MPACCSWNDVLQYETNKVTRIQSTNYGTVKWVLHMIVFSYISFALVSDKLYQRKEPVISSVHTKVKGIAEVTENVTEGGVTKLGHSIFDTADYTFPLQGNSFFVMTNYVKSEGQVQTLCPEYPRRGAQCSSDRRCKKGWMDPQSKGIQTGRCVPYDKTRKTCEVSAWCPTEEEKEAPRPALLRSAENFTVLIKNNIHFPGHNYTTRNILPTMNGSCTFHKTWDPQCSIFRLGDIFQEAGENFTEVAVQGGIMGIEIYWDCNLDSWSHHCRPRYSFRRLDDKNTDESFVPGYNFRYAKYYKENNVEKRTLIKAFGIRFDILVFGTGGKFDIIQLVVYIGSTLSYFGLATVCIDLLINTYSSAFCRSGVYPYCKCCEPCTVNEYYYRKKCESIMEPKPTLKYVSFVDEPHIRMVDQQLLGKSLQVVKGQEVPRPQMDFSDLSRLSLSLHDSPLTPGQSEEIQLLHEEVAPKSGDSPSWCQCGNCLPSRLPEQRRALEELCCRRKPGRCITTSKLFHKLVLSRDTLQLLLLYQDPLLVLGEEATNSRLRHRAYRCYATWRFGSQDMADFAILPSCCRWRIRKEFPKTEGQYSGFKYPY

hP2X7 F103A = hP2X7 F103A (Homo sapiens, UniProt Q99572, F103A); assay: Whole-cell patch clamp, hP2X7 mutant; format: cell-based; conditions: h7F103A, 30 μM (Fig. S3b)
hP2X7 E305F = hP2X7 E305F (Homo sapiens, UniProt Q99572, E305F); assay: Whole-cell patch clamp, hP2X7 mutant; format: cell-based
hP2X7 I68F = hP2X7 I68F (Homo sapiens, UniProt Q99572, I68F); assay: Whole-cell patch clamp, hP2X7 mutant; format: cell-based
hP2X7 M140E = hP2X7 M140E (Homo sapiens, UniProt Q99572, M140E); assay: Whole-cell patch clamp, hP2X7 mutant; format: cell-based; conditions: h7M140E, 30 μM (Fig. S3b)
hP2X7 E305C = hP2X7 E305C (Homo sapiens, UniProt Q99572, E305C); assay: Whole-cell patch clamp, hP2X7 mutant; format: cell-based; conditions: h7E305C, 30 μM (Fig. S3b)
rP2X7 = molecular target: T2, rP2X7 (Rattus norvegicus, UniProt Q64663); assay: Whole-cell patch clamp, ATP-evoked current, transfected HEK293; format: cell-based; conditions: HEK293, read-out: inhibition rate
T2 sequence (Q64663 1-595): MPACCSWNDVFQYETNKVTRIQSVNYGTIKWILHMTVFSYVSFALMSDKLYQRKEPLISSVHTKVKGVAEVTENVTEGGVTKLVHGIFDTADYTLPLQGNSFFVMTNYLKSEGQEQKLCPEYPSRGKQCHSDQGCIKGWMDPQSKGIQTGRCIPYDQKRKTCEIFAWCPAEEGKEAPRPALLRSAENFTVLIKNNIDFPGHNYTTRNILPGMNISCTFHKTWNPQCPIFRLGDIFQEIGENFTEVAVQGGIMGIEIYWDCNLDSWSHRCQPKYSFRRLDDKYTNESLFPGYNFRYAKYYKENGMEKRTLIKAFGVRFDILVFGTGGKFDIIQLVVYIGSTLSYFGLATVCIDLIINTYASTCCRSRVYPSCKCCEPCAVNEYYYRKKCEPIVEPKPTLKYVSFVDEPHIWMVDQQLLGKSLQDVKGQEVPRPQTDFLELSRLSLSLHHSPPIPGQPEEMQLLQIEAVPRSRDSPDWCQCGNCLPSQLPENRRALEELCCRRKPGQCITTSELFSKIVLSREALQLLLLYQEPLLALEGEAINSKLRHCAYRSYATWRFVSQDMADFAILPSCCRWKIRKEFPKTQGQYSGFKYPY

hP2X7 = molecular target: T3, hP2X7 (Homo sapiens, UniProt Q99572); assay: as above; format: cell-based
T3 sequence (Q99572 1-595): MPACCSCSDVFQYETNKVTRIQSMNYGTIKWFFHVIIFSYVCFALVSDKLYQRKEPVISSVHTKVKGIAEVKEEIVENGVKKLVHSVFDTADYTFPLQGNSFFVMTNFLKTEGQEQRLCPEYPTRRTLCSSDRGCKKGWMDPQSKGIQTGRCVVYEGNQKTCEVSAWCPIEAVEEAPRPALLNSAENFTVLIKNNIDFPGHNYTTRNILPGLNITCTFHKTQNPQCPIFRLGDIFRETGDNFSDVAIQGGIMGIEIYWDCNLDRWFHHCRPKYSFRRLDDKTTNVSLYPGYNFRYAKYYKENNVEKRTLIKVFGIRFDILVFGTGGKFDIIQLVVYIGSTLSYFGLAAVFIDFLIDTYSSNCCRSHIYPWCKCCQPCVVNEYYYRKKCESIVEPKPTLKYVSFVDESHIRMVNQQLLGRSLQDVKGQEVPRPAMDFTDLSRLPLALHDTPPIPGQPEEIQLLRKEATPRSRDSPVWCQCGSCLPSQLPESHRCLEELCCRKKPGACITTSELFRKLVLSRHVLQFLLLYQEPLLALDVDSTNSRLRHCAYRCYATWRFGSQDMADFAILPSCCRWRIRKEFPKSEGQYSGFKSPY

mP2X7 A312V = molecular target: T4, mP2X7 A312V (Mus musculus, UniProt Q9Z1M0, A312V); assay: Whole-cell patch clamp, mP2X7 mutant; format: cell-based; conditions: read-out: EC50 (apparent affinity for ATP); m7A312V
T4 sequence (Q9Z1M0 1-595 A312V): T1 sequence (Q9Z1M0 1-595) with A312V

human P2X7 [1] = conditions: cited from earlier work
human P2X3 = conditions: read-out: IC50 (half-maximal inhibitory concentration); hP2X3; cited from earlier work
human P2X7 [2] = assay: Literature IC50; conditions: from Table S1 values
human P2X4 = conditions: cited from earlier work
[3] = HEK293, read-out: inhibition rate

Sequence of hP2X7 V312A (Q99572 whole entry V312A): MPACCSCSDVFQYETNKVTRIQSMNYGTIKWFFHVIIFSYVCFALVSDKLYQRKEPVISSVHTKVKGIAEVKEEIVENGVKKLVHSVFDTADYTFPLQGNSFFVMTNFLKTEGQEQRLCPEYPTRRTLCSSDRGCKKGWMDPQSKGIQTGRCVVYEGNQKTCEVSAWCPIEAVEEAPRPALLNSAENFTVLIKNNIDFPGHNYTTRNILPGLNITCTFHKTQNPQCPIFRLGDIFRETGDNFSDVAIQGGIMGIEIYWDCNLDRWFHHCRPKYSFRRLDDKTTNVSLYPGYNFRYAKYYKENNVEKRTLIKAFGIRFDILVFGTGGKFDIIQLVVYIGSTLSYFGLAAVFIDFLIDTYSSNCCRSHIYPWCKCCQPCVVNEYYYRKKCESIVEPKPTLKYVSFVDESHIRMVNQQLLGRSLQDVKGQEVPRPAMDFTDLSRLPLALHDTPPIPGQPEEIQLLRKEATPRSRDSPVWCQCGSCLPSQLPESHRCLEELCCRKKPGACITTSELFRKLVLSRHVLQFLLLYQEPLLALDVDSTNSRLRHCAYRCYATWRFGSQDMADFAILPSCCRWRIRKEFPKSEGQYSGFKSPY
Sequence of hP2X7 E305F (Q99572 whole entry E305F): as the sequence (Q99572 whole entry V312A) above, with E305F, A312V counted along it
Sequence of hP2X7 I68F (Q99572 whole entry I68F): as the sequence (Q99572 whole entry V312A) above, with I68F, A312V counted along it
Sequence of hP2X7 Y295F (Q99572 whole entry Y295F): as the sequence (Q99572 whole entry V312A) above, with Y295F, A312V counted along it
Sequence of hP2X7 M140E (Q99572 whole entry M140E): as the sequence (Q99572 whole entry V312A) above, with M140E, A312V counted along it
Sequence of hP2X7 F103A (Q99572 whole entry F103A): as the sequence (Q99572 whole entry V312A) above, with F103A, A312V counted along it
Sequence of hP2X7 F88A (Q99572 whole entry F88A): as the sequence (Q99572 whole entry V312A) above, with F88A, A312V counted along it
Sequence of hP2X7 E305C (Q99572 whole entry E305C): as the sequence (Q99572 whole entry V312A) above, with E305C, A312V counted along it

For COc1ccc2cc3[n+](cc2c1OC)CCc1cc2c(cc1-3)OCO2 [berberine], the “inhibitory effect vs h7WT” value (hP2X7 F88A) was “notably attenuated”, the IC50 (hP2X7 V312A) was over 300 µM and the “inhibitory effect vs h7WT” value (hP2X7 V312A; h7V312A, 30 μM (Fig. S3b)) was “notably attenuated”. For the same compound, the IC50 (hP2X7 Y295F) was 46.6 ± 7.8 µM, the “inhibitory effect vs h7WT” value (hP2X7 Y295F; h7Y295F, 30 μM (Fig. S3b)) was “notably attenuated” and the inhibition at 300 µM (mP2X7; [3]) was 8.02 ± 2.7%. For the same compound, the “inhibitory effect vs h7WT” value (hP2X7 F103A) was “notably attenuated”, the IC50 (hP2X7 E305F) was 87.7 ± 4.3 µM and the “inhibitory effect vs h7WT” value (hP2X7 E305F; h7E305F, 30 μM (Fig. S3b)) was “notably attenuated”. For the same compound, the IC50 (hP2X7 I68F) was 39.9 ± 5.8 µM, the “inhibitory effect vs h7WT” value (hP2X7 I68F; h7I68F, 30 μM (Fig. S3b)) was “notably attenuated” and the “inhibitory effect vs h7WT” value (hP2X7 M140E) was “notably attenuated”. For the same compound, the “inhibitory effect vs h7WT” value (hP2X7 E305C) was “notably attenuated”, the inhibition at 300 µM (rP2X7) was 19.2 ± 4.3% and the IC50 (hP2X7) was 12.7 ± 0.9 µM.

With C=CC[C@H]1c2ccc(OC)c(OC)c2CN2CCc3cc4c(cc3[C@@H]12)OCO4 [PSFL1190, (13S,13aR)-13-allyl-9,10-dimethoxy-5,8,13,13a-tetrahydro-6H-1,3dioxolo[4,5-g] isoquinolino[3,2-a]isoquinoline] the inhibition at 30 µM (mP2X7; [3]) was 11.8 ± 6.1%, the inhibition at 30 µM (rP2X7) was 12.1 ± 2.4% and the IC50 (hP2X7) was 12.6 ± 2.9 µM. For the same compound, the “fold difference in affinity for hP2X7 between PSFL1191 and PSFL1190” value (hP2X7) was “more than 50 fold”.

Nc1ncnc2c1ncn2[C@@H]1O[C@H](COP(=O)(O)OP(=O)(O)OP(=O)(O)O)[C@@H](O)[C@H]1O [ATP, reference compound] showed an EC50 (mP2X7; read-out: EC50 (apparent affinity for ATP), m7WT) of 782 ± 71 µM and an EC50 (mP2X7 A312V) of 1420 ± 170 µM.

In the case of COc1ccc(CC(=O)NC(NC(=NC#N)Nc2cccc3ncccc23)C(C)(C)C)cc1OC (centres unmarked) [A740003, N-(1-{[(cyanoimino)(5-quinolinylamino)methyl]amino}-2,2-dimethylpropyl)-2-(3,4-dimethoxyphenyl)acetamide], the IC50 (human P2X7 [1]; P2X7) is given as 0.0437 µM and the “fold difference in IC50 between hP2X7 and mP2X7” value (human P2X7 [1]) is given as 37 fold.

In the case of CNC(=O)c1cc(F)c(-c2nc3cc(C)ccn3c2C[C@H]2CN(C(=O)OC)CCO2)c(F)c1 [BLU-5937], the IC50 (human P2X3) is given as 0.025 µM.

With O=C(CC12CC3CC(CC(C3)C1)C2)Nc1cccc2nc(NCCNCCO)ccc12 [AZ10606120] the “apparent affinity (IC50) for hP2X7, fold higher than for mP2X7” value (human P2X7 [2]) was 500 fold and the “apparent affinity (IC50) for hP2X7, fold higher than for rP2X7” value (human P2X7 [2]) was 1587 fold.

For CC(C)c1cc(Br)c(NC(=O)Nc2cccnc2)c(Br)c1 [BX430], the IC50 (human P2X4; P2X4) is listed as 0.54 µM, the “IC50 for hP2X4, fold lower than for mP2X4 and rP2X4” value (human P2X4) is listed as “more than 20 fold” and the “fold difference between hP2X4 and mP2X4” value (human P2X4) is listed as over 20 fold.
